# Laboratory results from patent US20200399238A1, “THERAPEUTIC AURONES” (MIDDLE TENNESSEE STATE UNIVERSITY, priority 2016, published 2020).
# Key:
# IKKβ, IκBα, p65 = experiment: Western blot, IKK / IκBα / p65 phosphorylation, THP-1; conditions: 12.5, 25, 50 μM, LPS 15 min, dose-dependent
# Experimental: U0126 is a compound that inhibits MEK1/2 and was used as positive control for ERK phosphorylation inhibition (Hotokezaka, Sakai et al. 2002). Cells were lysed with radio-immunoprecipitation assay (RIPA) lysis buffer that contained a protease and phosphatase inhibitor cocktail. Cell lysates were then tested for protein concentration using a BCA protein assay and diluted with RIPA lysis buffer to normalize protein concentration in all samples. Lysates were mixed with sample loading buffer containing bromophenol blue, glycerol, SDS, and 2-mercaptoethanol. The separated proteins were then transferred onto a nitrocellulose membrane and blocked with 5% BSA in IX Tris-buffered saline with 0.1% Tween-20 for 1 h. The blots were incubated with primary antibodies at 4° C. overnight followed by incubation with HRP-conjugated secondary antibodies for 2 h at 22° C. The membranes were developed by addition of ECL substrate and images were collected with a ChemiDoc XRS+ system chemiluminescence imager (Bio-Rad, Hercules, Calif., USA). Western blot band intensity was quantified using Image Lab software (Bio-Rad, Hercules, Calif., USA). […]
# NO production = experiment: NO assay (Griess, nitrite), RAW 264.7; assay type: cell-based, murine; conditions: LPS-stimulated RAW264.7, 24 h
# Experimental: Nitrite concentration in culture media of cells exposed to the indicated treatments was determined as an estimate of NO production with Griess reagent using a nitrate/nitrite colorimetric assay kit (Cayman Chemical Company, USA) according to the manufacturer's protocol.
# IL-1β = experiment: Cytokine response by ELISA, IL-1β; assay type: cell-based, human; conditions: LPS-stimulated THP-1, ELISA
# Experimental: Dexamethasone is a synthetic glucocorticoid that suppresses LPS-induced pro-inflammatory cytokine expression and was used as a control (Abraham, Lawrence et al. 2006). Supernatants were collected for human cytokine ELISAs and the manufacturer's protocol was followed to assess the cytokine response. Cells remaining after the supernatant collection were tested for relative viability by Alamar Blue cytotoxicity assay as previously described.
# T. rubrum = experiment: Antifungal microdilution broth assay, T. rubrum; assay type: cell-based; conditions: Trichophyton rubrum; Table 5
# From the text: A microdilution broth method (CLSI, Reference Method for Broth Dilution Antifungal Susceptibility Testing of Yeasts, Approved Standard-Third Edition, Clinical Laboratory Standards Institute, Wayne, Pa., 2008) was followed with some modifications for the testing of potential antifungal compounds Corning CellGro RPMI 1640 with glutamine, without bicarbonate buffer, with phenol red (RPMI; Sigma-Aldrich) was used as the base medium for testing. A 1 M solution of morpholinepropanesulfonic acid (MOPS; Sigma-Aldrich) was added to the RPMI to a final concentration of 0.165 M for buffering (RPMI-MOPS). This medium was adjusted to a pH of 7.0 with 10 M NaOH and filter sterilized.
# PrestoBlue® (Life Technologies, Invitrogen, Carlsbad, Calif.), a resazurin-based cell viability reagent that, in metabolically active cells, is reduced from blue, non-fluorescent resazurin, to red, fluorescent resorufin, was used to assess inhibition of yeast growth by the aurones. Reduction of the compound from resazurin to resorufin is proportional to the number of metabolically active cells and can be quantified by measuring relative fluorescence units (RFUs). […]
# IC50 determination was calculated using GraphPad Prism version 7.01 for Windows (GraphPad Software, Inc., La Jolla, Calif.) from the RFUs at dilution points. […]
# [1] = test system: C. tropicalis (ATCC strain 750); experiment: Antifungal microdilution broth assay (PrestoBlue), C. tropicalis; assay type: cell-based; conditions: Candida tropicalis, ATCC750; Table 5
# Experimental: Sigma-Aldrich) was used as the base medium for testing. […] solution of morpholinepropanesulfonic acid (MOPS; Sigma-Aldrich) was added to the RPMI to a final concentration of 0.165 M for buffering (RPMI-MOPS). This medium was adjusted to a pH of 7.0 with 10 M NaOH and filter sterilized. C. albicans (ATCC strain 90028), C. [NT] strain 66032), and C. tropicalis (ATCC strain 750) were cultured on potato dextrose agar (Sigma-Aldrich) plates, and incubated at 35° C. for 24 hours. For antifungal testing, overnight colonies were adjusted to 1.5×10^3 cells/mL, hereafter referred to as the test inoculum. […] Reduction of the compound from resazurin to resorufin is proportional to the number of metabolically active cells and can be quantified by measuring relative fluorescence units (RFUs). […] PrestoBlue was added to a final concentration of 10% in each well and fluorescence read at 560 nm excitation and 590 nm emission, per manufacturer instructions, using a SpectraMax M2e spectrophotometer (Molecular Devices, LLC, Sunnyvale, Calif.). […] The calculated Z', as described below, was compared to RFU readings and the optimal PrestoBlue incubation time was determined to be 75 minutes. IC50 determination was calculated using GraphPad Prism version 7.01 for Windows (GraphPad Software, Inc., La Jolla, Calif.) from the RFUs at dilution points. […]
Structure (SMILES),"phosphorylation of IKKβ, IκBα and p65 (IKKβ, IκBα, p65)",production of NO (nitrite in supernatants) (NO production),reduction of IL-1β expression (IL-1β),IC50 (T. rubrum),IC50 [1]
O=C1/C(=C/c2ccc(CO)o2)Oc2ccccc21 [aurone 1],suppress the phosphorylation of all three proteins,significantly reduced,98%,–,–
"COc1ccc(/C=C2\Oc3c(ccc(O)c3O)C2=O)cc1O [Aurone 1009, (Z)-6,7-dihydroxy-2-(3-hydroxy-4-methoxybenzylidene)benzofuran-3(2H)-one]",–,–,–,49 µM,10 µM
